Results on two molecules are retold here after ChEMBL document CHEMBL4321812, “Structure-based rational design of staurosporine-based fluorescent probe with broad-ranging kinase affinity for kinase panel application” (Bioorg Med Chem Lett, 2019).

Assay [1] has as its target Myosin light chain kinase, smooth muscle (Homo sapiens, UniProt Q15746). Put plainly: Binding affinity to recombinant full-length N-terminal His-FLAG-GST-tagged MYLK (unknown origin) (1428 to 1771 residues) expressed in baculovirus infected Sf9 insect cells incubated for 1 hr by TR-FRET assay.
In a further assay the target is CDK8/Cyclin C (Homo sapiens, UniProt P49336). Put plainly: Binding affinity to recombinant human full length N-terminal GST-tagged CDK8 co-expressed with N-terminal GST-tagged CyclinC expressed in baculovirus expression system using RNA polymerase peptide as substrate incubated for 1 hr by TR-FRET assay. (TR-FRET usually uses a lanthanide donor and a delayed reading to cut background.)

The target in another assay is Misshapen-like kinase 1 (Homo sapiens, UniProt Q8N4C8). Put plainly: Binding affinity to recombinant full-length N-terminal His-FLAG-GST-tagged MINK1 (unknown origin) (1 to 314 residues) expressed in baculovirus infected Sf9 insect cells incubated for 1 hr by TR-FRET assay.
In the next assay the target is Focal adhesion kinase 1 (Homo sapiens, UniProt Q05397). Put plainly: Binding affinity to recombinant human full length N-terminal GST-tagged PTK2 expressed in baculovirus expression system incubated for 1 hr by TR-FRET assay.
The target of assay [2] is TRAF2 and NCK-interacting protein kinase (Homo sapiens, UniProt Q9UKE5). Put plainly: Binding affinity to recombinant full-length N-terminal His-FLAG-GST-tagged TNIK (unknown origin) (1 to 314 residues) expressed in baculovirus infected Sf9 insect cells incubated for 1 hr by TR-FRET assay.
In assay [3] the target is Ribosomal protein S6 kinase alpha-5 (Homo sapiens, UniProt O75582). Put plainly: Binding affinity to recombinant full-length N-terminal His-FLAG-GST-tagged RPS6KA5 (unknown origin) expressed in baculovirus infected Sf9 insect cells incubated for 1 hr by TR-FRET assay.
In assay [4] the target is Non-receptor tyrosine-protein kinase TNK1 (Homo sapiens, UniProt Q13470). Put plainly: Binding affinity to recombinant human N-terminal GST-tagged TNK1 (106 to 390 residues) expressed in baculovirus expression system using CSKtide as substrate incubated for 1 hr by TR-FRET assay.
The target of assay [5] is Testis-specific serine/threonine-protein kinase 3 (Homo sapiens, UniProt Q96PN8). Put plainly: Binding affinity to recombinant full-length N-terminal His-FLAG-GST-tagged TSSK3 (unknown origin) expressed in baculovirus infected Sf9 insect cells incubated for 1 hr by TR-FRET assay.
The target in assay [6] is Tyrosine-protein kinase Yes (Homo sapiens, UniProt P07947). Put plainly: Binding affinity to recombinant full-length N-terminal His-FLAG-GST-tagged YES1 (unknown origin) expressed in baculovirus infected Sf9 insect cells incubated for 1 hr by TR-FRET assay.
Assay [7] addresses Receptor tyrosine-protein kinase erbB-4 (Homo sapiens, UniProt Q15303). Put plainly: Binding affinity to recombinant human full-length N-terminal GST-tagged ERBB4 expressed in baculovirus expression system using srctide as substrate incubated for 1 hr by TR-FRET assay.
Assay [8] has as its target Maternal embryonic leucine zipper kinase (Homo sapiens, UniProt Q14680). Put plainly: Binding affinity to recombinant full-length N-terminal His-FLAG-GST-tagged MELK (unknown origin) (1 to 493 residues) expressed in baculovirus infected Sf9 insect cells incubated for 1 hr by TR-FRET assay.
Assay [9] concerns the target cAMP-dependent protein kinase catalytic subunit beta (Homo sapiens, UniProt P22694). Put plainly: Binding affinity to recombinant full-length N-terminal His-FLAG-GST-tagged PRKACB (unknown origin) expressed in baculovirus infected Sf9 insect cells incubated for 1 hr by TR-FRET assay.
The target of assay [10] is Serine/threonine-protein kinase Sgk1 (Homo sapiens, UniProt O00141). Put plainly: Binding affinity to recombinant full-length N-terminal His-FLAG-GST-tagged SGK1 (unknown origin) (60 to 431 residues) expressed in baculovirus infected Sf9 insect cells incubated for 1 hr by TR-FRET assay.
Assay [11] has as its target Tyrosine-protein kinase JAK3 (Homo sapiens, UniProt P52333). Put plainly: Binding affinity to recombinant full-length N-terminal His-FLAG-GST-tagged JAK3 (unknown origin) (795 to 1124 residues) expressed in baculovirus infected Sf9 insect cells incubated for 1 hr by TR-FRET assay.
Assay [12] concerns the target Death-associated protein kinase 1 (Homo sapiens, UniProt P53355). Put plainly: Binding affinity to recombinant full-length N-terminal His-FLAG-GST-tagged DAPK1 (unknown origin) (1 to 289 residues) expressed in baculovirus infected Sf9 insect cells incubated for 1 hr by TR-FRET assay.
For assay [13], the target named is Serine/threonine-protein kinase MRCK alpha (Homo sapiens, UniProt Q5VT25). Put plainly: Binding affinity to recombinant full-length N-terminal His-FLAG-GST-tagged CDC42BPA (unknown origin) (1 to 574 residues) expressed in baculovirus infected Sf9 insect cells incubated for 1 hr by TR-FRET assay.
Assay [14] concerns the target Mitogen-activated protein kinase 8 (Homo sapiens, UniProt P45983). Put plainly: Binding affinity to recombinant N-terminal His-FLAG-GST-tagged MAPK8 (unknown origin) (2 to 364 residues) expressed in baculovirus infected Sf9 insect cells incubated for 1 hr by TR-FRET assay.
In a further assay the target is Rhodopsin kinase GRK1 (Homo sapiens, UniProt Q15835). Put plainly: Binding affinity to recombinant full-length N-terminal His-FLAG-GST-tagged GRK1 (unknown origin) expressed in baculovirus infected Sf9 insect cells incubated for 1 hr by TR-FRET assay.
Assay [15] has as its target Glycogen synthase kinase-3 beta (Homo sapiens, UniProt P49841). Put plainly: Binding affinity to recombinant full-length N-terminal His-FLAG-GST-tagged GSK3B (unknown origin) expressed in baculovirus infected Sf9 insect cells incubated for 1 hr by TR-FRET assay.
Assay [16] addresses Mitogen-activated protein kinase kinase kinase 7 (Homo sapiens, UniProt O43318). Put plainly: Binding affinity to recombinant full-length N-terminal His-FLAG-tagged MAP3K7 (unknown origin) expressed in baculovirus infected Sf9 insect cells incubated for 1 hr by TR-FRET assay.
In assay [17] the target is Tyrosine-protein kinase receptor UFO (Homo sapiens, UniProt P30530). Put plainly: Binding affinity to recombinant full-length N-terminal His-FLAG-GST-tagged AXL (unknown origin) expressed in baculovirus infected Sf9 insect cells incubated for 1 hr by TR-FRET assay.
In assay [18] the target is Serine/threonine-protein kinase D2 (Homo sapiens, UniProt Q9BZL6). Put plainly: Binding affinity to recombinant full-length N-terminal His-FLAG-tagged PRKD2 (unknown origin) expressed in baculovirus infected Sf9 insect cells incubated for 1 hr by TR-FRET assay.
The target in assay [19] is Protein kinase C epsilon type (Homo sapiens, UniProt Q02156). Put plainly: Binding affinity to recombinant human full length N-terminal GST-tagged PRKCE expressed in baculovirus expression system using PKC peptide as substrate incubated for 1 hr by TR-FRET assay.
Assay [20] deals with MAP kinase-interacting serine/threonine-protein kinase 2 (Homo sapiens, UniProt Q9HBH9). Put plainly: Binding affinity to recombinant human full-length N-terminal GST-tagged MKNK2 expressed in baculovirus expression system using RS peptide as substrate incubated for 1 hr by TR-FRET assay.

SMILES strings stand for the structures.

Serine/threonine-protein kinase Sgk1, sequence (O00141 whole entry, the tested form may be a part): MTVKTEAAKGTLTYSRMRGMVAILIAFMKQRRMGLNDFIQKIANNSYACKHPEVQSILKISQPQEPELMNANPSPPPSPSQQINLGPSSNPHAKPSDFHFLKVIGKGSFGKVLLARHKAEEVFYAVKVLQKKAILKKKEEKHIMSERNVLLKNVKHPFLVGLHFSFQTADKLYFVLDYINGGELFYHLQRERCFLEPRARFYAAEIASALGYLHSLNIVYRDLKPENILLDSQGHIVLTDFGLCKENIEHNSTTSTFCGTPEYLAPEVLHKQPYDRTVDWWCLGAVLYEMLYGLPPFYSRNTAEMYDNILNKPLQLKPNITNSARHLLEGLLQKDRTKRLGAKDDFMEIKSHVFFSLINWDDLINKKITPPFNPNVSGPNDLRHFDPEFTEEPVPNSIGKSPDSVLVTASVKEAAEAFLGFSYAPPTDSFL
Mitogen-activated protein kinase kinase kinase 7, sequence (O43318 whole entry): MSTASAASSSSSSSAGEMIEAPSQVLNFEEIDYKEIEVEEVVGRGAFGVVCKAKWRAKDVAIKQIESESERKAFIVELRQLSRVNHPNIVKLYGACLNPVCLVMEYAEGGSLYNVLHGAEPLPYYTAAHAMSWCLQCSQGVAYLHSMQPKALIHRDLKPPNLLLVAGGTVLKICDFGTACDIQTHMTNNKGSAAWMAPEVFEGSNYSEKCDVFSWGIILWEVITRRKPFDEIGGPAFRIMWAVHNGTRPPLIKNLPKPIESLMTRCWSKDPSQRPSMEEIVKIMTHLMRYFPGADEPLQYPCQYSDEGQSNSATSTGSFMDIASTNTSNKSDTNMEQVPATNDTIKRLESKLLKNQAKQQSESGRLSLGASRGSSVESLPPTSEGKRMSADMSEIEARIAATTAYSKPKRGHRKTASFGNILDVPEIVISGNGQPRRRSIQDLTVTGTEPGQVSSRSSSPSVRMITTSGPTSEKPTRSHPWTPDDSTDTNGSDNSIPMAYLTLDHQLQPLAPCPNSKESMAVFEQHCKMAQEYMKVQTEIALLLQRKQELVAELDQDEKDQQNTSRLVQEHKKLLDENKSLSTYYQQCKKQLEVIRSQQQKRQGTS
Ribosomal protein S6 kinase alpha-5, sequence (O75582 whole entry, the tested form may be a part): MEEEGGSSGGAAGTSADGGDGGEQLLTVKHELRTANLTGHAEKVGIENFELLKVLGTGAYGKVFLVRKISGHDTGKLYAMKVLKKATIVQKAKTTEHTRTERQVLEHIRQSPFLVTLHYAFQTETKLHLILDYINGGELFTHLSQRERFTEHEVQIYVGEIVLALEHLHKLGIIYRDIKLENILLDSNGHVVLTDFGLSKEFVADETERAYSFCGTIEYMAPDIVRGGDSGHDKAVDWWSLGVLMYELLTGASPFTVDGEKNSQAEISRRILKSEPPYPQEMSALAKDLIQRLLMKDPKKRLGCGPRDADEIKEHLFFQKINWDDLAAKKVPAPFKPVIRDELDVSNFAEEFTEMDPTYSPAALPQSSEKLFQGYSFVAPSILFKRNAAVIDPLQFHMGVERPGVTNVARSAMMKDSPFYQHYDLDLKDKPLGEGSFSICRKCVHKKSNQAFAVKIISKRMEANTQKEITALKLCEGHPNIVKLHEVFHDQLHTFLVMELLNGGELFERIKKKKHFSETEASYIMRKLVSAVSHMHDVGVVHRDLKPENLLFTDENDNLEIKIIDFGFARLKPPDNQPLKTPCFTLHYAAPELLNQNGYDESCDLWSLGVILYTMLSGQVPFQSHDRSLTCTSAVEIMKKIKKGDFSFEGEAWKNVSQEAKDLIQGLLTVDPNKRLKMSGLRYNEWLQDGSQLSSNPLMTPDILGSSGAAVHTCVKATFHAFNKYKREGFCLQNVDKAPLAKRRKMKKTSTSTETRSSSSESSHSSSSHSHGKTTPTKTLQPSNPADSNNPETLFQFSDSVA
Glycogen synthase kinase-3 beta, sequence (P49841 whole entry): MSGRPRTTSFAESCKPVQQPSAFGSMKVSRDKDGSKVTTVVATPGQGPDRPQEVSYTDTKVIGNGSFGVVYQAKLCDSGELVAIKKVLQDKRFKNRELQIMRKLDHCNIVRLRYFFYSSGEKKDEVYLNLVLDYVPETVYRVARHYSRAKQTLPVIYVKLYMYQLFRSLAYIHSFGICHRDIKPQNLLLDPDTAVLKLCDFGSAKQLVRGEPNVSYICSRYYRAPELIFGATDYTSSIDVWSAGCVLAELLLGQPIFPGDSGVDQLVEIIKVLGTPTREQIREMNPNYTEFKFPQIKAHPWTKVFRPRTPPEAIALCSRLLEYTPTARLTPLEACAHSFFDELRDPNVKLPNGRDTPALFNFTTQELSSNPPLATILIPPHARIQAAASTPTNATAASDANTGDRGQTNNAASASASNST
Focal adhesion kinase 1, sequence (Q05397 whole entry, the tested form may be a part): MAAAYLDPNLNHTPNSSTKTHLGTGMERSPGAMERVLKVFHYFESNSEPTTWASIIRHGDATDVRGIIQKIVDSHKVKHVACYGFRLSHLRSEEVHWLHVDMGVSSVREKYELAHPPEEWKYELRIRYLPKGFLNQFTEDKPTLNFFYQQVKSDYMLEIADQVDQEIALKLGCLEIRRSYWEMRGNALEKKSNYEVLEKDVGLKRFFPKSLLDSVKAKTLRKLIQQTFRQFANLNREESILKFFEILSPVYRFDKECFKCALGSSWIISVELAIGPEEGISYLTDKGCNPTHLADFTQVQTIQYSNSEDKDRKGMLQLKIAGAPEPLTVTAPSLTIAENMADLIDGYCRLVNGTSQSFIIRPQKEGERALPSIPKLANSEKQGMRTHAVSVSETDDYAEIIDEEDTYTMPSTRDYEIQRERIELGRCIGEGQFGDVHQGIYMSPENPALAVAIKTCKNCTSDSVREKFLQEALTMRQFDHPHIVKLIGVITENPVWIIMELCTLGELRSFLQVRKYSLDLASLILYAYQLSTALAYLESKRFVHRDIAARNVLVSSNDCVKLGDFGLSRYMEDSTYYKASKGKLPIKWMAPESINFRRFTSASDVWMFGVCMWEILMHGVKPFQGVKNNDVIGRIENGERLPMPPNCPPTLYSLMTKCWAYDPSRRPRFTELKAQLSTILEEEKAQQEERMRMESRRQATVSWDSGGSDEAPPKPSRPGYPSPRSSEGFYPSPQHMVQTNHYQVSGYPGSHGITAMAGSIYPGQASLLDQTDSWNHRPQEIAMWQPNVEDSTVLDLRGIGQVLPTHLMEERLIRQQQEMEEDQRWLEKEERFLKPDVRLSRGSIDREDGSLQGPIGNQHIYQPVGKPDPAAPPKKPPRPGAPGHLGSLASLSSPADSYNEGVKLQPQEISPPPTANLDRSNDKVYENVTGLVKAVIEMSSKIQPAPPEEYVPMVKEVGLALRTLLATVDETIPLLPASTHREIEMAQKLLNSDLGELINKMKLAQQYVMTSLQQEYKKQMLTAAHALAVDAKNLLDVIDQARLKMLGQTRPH
Maternal embryonic leucine zipper kinase, sequence (Q14680 whole entry, the tested form may be a part): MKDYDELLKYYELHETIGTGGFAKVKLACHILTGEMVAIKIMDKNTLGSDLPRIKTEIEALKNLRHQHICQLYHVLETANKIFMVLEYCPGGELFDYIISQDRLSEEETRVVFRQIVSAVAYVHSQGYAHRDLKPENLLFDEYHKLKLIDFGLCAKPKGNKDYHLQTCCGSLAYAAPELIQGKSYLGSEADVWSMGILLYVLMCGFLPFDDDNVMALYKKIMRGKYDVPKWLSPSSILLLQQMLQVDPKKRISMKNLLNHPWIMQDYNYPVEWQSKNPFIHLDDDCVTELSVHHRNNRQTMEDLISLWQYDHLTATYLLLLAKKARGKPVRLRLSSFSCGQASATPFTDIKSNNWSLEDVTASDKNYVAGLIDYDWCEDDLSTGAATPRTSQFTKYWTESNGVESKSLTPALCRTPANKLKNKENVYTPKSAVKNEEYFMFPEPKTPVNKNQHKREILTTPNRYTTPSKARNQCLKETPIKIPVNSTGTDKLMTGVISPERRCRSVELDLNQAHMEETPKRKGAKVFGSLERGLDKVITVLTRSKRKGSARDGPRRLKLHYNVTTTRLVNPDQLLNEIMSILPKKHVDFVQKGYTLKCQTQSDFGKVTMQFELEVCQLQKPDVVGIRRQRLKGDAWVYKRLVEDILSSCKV
CDK8/Cyclin C, sequence (P49336 whole entry): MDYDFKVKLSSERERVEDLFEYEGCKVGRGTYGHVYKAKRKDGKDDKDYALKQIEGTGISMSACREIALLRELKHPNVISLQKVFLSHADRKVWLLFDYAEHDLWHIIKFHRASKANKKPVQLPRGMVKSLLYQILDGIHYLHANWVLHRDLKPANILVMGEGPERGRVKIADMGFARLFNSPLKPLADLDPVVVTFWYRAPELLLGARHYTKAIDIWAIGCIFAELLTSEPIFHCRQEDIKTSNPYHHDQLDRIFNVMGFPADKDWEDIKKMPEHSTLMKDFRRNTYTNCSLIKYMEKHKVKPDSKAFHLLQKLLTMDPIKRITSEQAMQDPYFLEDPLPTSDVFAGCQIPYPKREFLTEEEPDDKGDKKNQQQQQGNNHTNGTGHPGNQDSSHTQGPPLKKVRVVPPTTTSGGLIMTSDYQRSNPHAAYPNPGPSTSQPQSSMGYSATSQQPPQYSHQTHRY
CDK8/Cyclin C, sequence (P24863 whole entry, further chain): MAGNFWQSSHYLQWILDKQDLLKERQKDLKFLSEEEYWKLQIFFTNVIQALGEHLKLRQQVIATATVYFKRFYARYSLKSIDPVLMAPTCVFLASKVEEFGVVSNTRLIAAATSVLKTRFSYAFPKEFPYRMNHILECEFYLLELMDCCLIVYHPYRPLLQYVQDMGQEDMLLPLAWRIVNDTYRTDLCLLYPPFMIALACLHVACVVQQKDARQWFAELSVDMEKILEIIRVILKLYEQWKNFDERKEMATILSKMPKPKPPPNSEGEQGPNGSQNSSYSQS
Testis-specific serine/threonine-protein kinase 3, sequence (Q96PN8 whole entry): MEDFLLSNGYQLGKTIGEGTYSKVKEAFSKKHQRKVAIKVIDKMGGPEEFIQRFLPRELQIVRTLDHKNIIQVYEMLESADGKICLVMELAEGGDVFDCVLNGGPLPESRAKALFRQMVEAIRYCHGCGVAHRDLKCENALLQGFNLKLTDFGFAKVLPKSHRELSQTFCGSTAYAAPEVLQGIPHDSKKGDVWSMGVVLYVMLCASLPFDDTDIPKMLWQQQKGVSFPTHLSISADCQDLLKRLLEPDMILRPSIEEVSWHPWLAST

Take `CO[C@@H]1[C@H](NCCOCCOCCOCCNC(=O)CCC2=[N+]3C(=Cc4c(C)cc(C)n4[B-]3(F)F)C=C2)C[C@H]2O[C@]1(C)n1c3ccccc3c3c4c(c5c6ccccc6n2c5c31)C(=O)NC4`: the Kd in assay [1] is 369 nM; on CDK8/Cyclin C, 299 nM; on Misshapen-like kinase 1 it was 228 nM; on Focal adhesion kinase 1, 401 nM; in assay [2], 121 nM; in assay [3], 345 nM. Further, the Kd came to 4 nM in assay [4]; 380 nM in assay [5]; 601 nM in [6]; 496 nM in [7]; 50 nM in assay [8]; 64 nM in assay [9]. Moreover, the Kd in [10] stood at 331 nM; in assay [11], 14 nM; in assay [12], 69 nM; in assay [13] it was 43 nM; in [14], 286 nM; on Rhodopsin kinase GRK1, 122 nM. In addition, the Kd was determined as 230 nM in [15]; 44 nM in [16]; 313 nM in [17]; 79 nM in [18]; 41 nM in [19]; 162 nM in assay [20].
With `CO[C@@H]1[C@H](N(C)CCOCCOCCOCCNC(=O)CCC2=[N+]3C(=Cc4c(C)cc(C)n4[B-]3(F)F)C=C2)C[C@H]2O[C@]1(C)n1c3ccccc3c3c4c(c5c6ccccc6n2c5c31)C(=O)NC4`, the dissociation constant (Kd) was determined as 298 nM in [1]; 148 nM at CDK8/Cyclin C; 158 nM on Misshapen-like kinase 1; 308 nM at Focal adhesion kinase 1; 97 nM in assay [2]; 249 nM in [3]. The Kd in assay [4] is 13 nM; in assay [5] it was 330 nM; in assay [6] it was > 2000 nM; in assay [7], 798 nM; in assay [8], 41 nM; in [9] it was 66 nM. The Kd came to 566 nM in [10]; 13 nM in assay [11]; 59 nM in [12]; 25 nM in [13]; 536 nM in assay [14]; 109 nM at Rhodopsin kinase GRK1. Besides, the Kd came to 148 nM in assay [15]; 60 nM in [16]; 559 nM in [17]; 140 nM in [18]; 15 nM in [19]; 205 nM in assay [20].

The term Kd denotes the constant that tells how readily two partners part at equilibrium.
